Literature values as cited in patent EP1854876A2, “Genetically engineered glutaminase and its use in antiviral and anticancer therapy” (ME MEDICAL ENZYMES AG, priority 1992, dated 1994).

Key:
[1] = test system: E. coli asparaginase, ineffective form; settings: substrate not given
E. coli glutaminase B = E. coli glutaminase B (Escherichia coli, UniProt P0A6W0); settings: described as high; substrate not given
[2] = biological target: Pseudomonas 7A glutaminase-asparaginase (Pseudomonas sp., UniProt P10182); settings: described as low
Sequence of Pseudomonas 7A glutaminase-asparaginase (P10182 whole entry): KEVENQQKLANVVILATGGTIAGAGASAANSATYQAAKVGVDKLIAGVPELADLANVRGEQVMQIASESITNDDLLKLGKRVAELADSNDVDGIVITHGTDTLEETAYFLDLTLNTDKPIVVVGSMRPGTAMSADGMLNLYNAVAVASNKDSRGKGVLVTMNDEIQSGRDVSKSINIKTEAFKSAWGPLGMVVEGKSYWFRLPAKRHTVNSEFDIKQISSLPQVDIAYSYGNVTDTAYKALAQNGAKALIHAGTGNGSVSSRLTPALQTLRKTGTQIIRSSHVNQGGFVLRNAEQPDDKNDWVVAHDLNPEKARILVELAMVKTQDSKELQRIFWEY

E. coli glutaminase A = E. coli glutaminase A (Escherichia coli, UniProt P77454); settings: described as high; substrate not given
Sequence of E. coli glutaminase A (P77454 whole entry): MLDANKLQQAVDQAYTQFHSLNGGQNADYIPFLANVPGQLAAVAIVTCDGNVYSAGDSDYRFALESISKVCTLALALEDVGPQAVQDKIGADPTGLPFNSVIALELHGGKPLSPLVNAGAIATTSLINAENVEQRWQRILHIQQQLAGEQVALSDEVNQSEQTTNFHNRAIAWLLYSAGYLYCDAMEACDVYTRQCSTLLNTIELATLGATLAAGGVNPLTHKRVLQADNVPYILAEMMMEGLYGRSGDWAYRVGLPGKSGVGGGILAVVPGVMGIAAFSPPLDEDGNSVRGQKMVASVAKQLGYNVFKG

[3] = test system: known mammalian glutaminase enzymes; settings: described as high; substrate not given

Sequence of E. coli glutaminase B (P0A6W0 whole entry): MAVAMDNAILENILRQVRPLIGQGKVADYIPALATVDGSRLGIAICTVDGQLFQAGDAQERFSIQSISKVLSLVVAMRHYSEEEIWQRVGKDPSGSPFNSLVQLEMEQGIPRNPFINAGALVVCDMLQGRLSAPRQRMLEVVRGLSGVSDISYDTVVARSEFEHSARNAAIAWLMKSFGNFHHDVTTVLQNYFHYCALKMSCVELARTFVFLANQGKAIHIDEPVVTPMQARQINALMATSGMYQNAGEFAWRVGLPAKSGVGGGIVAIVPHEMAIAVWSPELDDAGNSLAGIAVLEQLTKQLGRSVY

| Structure (SMILES) | Km [1] [µM] | KM (E. coli glutaminase B) | KM for glutamine [2] | KM (E. coli glutaminase A) | KM [3] |
| --- | --- | --- | --- | --- | --- |
| NC(=O)C[C@H](N)C(=O)O [asparagine] | > 1000 | – | – | – | – |
| NC(=O)CC[C@H](N)C(=O)O [glutamine] | – | millimolar range | micromolar range | millimolar range | millimolar range |
